Measurements reported in patent US8802597B2, “Herbicidal pyrimidines” (E I du Pont de Nemours and Company, priority 2003, dated 2014).

Legend:
Type in all cases: in vivo
[1] = test system: blackgrass (Alopecurus myosuroides); assay: Test B postemergence; settings: for Blackgrass plant response rating: 125 g ai/ha, scale 0 to 100 (0 no effect, 100 complete control); for Plant response rating, Blackgrass: 500 g ai/ha, scale 0 to 100
Summary of the method: (§1)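 Following sowing, compounds in a surfactant-bearing non-phytotoxic solvent were applied preemergence; emerged plants 2 to 18 cm high got postemergence treatment concurrently. Evaluation: 13 to 15 days later, greenhouse, 0–100 visual scale.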

wild oat (Avena fatua) = assay: Test B postemergence; settings: for Oat, Wild plant response rating: 125 g ai/ha, scale 0 to 100 (0 no effect, 100 complete control); for Plant response rating, Oat, Wild: 500 g ai/ha, scale 0 to 100
Summary of the method: as §1

[2] = test system: velvetleaf (Abutilon theophrasti); assay: Test B pre/postemergence
Summary of the method: as §1

[3] = test system: pigweed (Amaranthus retroflexus); assay: Test B pre/postemergence
Summary of the method: as §1

[4] = test system: wheat (Triticum aestivum); assay: Test B pre/postemergence
Summary of the method: as §1

[5] = test system: crabgrass (Digitaria sanguinalis); assay: Test B pre/postemergence
Summary of the method: as §1

corn (Zea mays) = assay: Test B pre/postemergence
Summary of the method: as §1

[6] = test system: lambsquarters (Chenopodium album); assay: Test B pre/postemergence
Summary of the method: as §1

[7] = test system: cocklebur (Xanthium strumarium); assay: Test B pre/postemergence
Summary of the method: as §1

[8] = test system: giant foxtail (Setaria faberii); assay: Test B pre/postemergence
Summary of the method: as §1

[9] = test system: barnyardgrass (Echinochloa crus-galli); assay: Test B pre/postemergence
Summary of the method: as §1

[10] = test system: Surinam grass (Brachiaria decumbens); assay: Test B pre/postemergence
Summary of the method: as §1

[11] = test system: morningglory (Ipomoea coccinea); assay: Test B pre/postemergence
Summary of the method: as §1

[12] = test system: duck salad (Heteranthera limosa); assay: Test B flooded paddy test; settings: Flood, 1000 g ai/ha; scale 0 to 100
Summary of the method: (§2)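 Visual injury scoring (0 = no effect, 100 = complete control) versus controls made 13 to 15 days after treatment in the greenhouse. Test species were grown in flooded paddy to the 2-leaf stage: rice, barnyardgrass, umbrella sedge, duck salad.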

rice (Oryza sativa) = assay: Test B flooded paddy test; settings: Flood, 1000 g ai/ha; scale 0 to 100
Summary of the method: as §2

[13] = test system: barnyardgrass (Echinochloa crus-galli); assay: Test B flooded paddy test; settings: Flood, 1000 g ai/ha; scale 0 (no effect) to 100 (complete control)
Summary of the method: as §2

[14] = test system: umbrella sedge (Cyperus difformis); assay: Test B flooded paddy test; settings: Flood, 1000 g ai/ha; scale 0 to 100
Summary of the method: as §2

[15] = Postemergence, 125 g ai/ha, scale 0 to 100 (0 no effect, 100 complete control)
[16] = Postemergence, 500 g ai/ha, scale 0 to 100
[17] = Preemergence, 125 g ai/ha, scale 0 to 100 (0 no effect, 100 complete control)
[18] = Preemergence, 500 g ai/ha, scale 0 to 100 (0 no effect, 100 complete control)

COC(=O)c1nc(-c2ccc(C(F)(F)F)cc2)nc(N)c1Cl [Compound 44]
60: Plant response rating, Wheat [4, 18] | Lambsquarters plant response rating [6, 18] | Surinam Grass plant response rating [10, 18]
30: Blackgrass plant response rating [1] | Plant response rating, Velvetleaf [2, 17] | Plant response rating, Wheat [4, 16] | Plant response rating, Wheat [4, 17] | Corn plant response rating (corn (Zea mays); [15])
70: Plant response rating, Pigweed [3, 17] | Crabgrass plant response rating [5, 15] | Plant response rating, Corn (corn (Zea mays); [16])
50: Plant response rating, Barnyardgrass [9, 16] | Plant response rating, Surinam Grass [10, 16]
100: Plant response rating, Cocklebur [7, 16] | Plant response rating, Morningglory [11, 16]
10: Plant response rating, Cocklebur [7, 17] | Barnyardgrass plant response rating [9, 18] | Plant response rating, Morningglory [11, 17]
20: Plant response rating, Foxtail, Giant [8, 17]
40: Plant response rating, Blackgrass [1] | Plant response rating, Crabgrass [5, 17] | Foxtail, Giant plant response rating [8, 18] | Barnyardgrass plant response rating [9, 15] | Plant response rating, Surinam Grass [10, 17] | Morningglory plant response rating [11, 18]
80: Velvetleaf plant response rating [2, 15] | Velvetleaf plant response rating [2, 18] | Pigweed plant response rating [3, 15] | Pigweed plant response rating [3, 18] | Plant response rating, Crabgrass [5, 16] | Crabgrass plant response rating [5, 18] | Cocklebur plant response rating [7, 18] | Morningglory plant response rating [11, 15] | Plant response rating, Sedge, Umbrella [14]
90: Plant response rating, Velvetleaf [2, 16] | Plant response rating, Pigweed [3, 16] | Lambsquarters plant response rating [6, 15] | Plant response rating, Lambsquarters [6, 16] | Cocklebur plant response rating [7, 15] | Plant response rating, Ducksalad [12]
0: Oat, Wild plant response rating (wild oat (Avena fatua)) | Plant response rating, Oat, Wild (wild oat (Avena fatua)) | Wheat plant response rating [4, 15] | Plant response rating, Corn (corn (Zea mays); [17]) | Corn plant response rating (corn (Zea mays); [18]) | Plant response rating, Barnyardgrass [9, 17] | Plant response rating, Rice (rice (Oryza sativa)) | Plant response rating, Barnyardgrass [13]

CCOC(=O)C(OC(C)=O)c1nc(C2CC2)nc(N)c1Br (stereo not drawn) [Compound 47]
0: Blackgrass plant response rating [1] | Plant response rating, Blackgrass [1] | Oat, Wild plant response rating (wild oat (Avena fatua)) | Plant response rating, Oat, Wild (wild oat (Avena fatua)) | Wheat plant response rating [4, 15] | Plant response rating, Wheat [4, 16] | Corn plant response rating (corn (Zea mays); [15]) | Plant response rating, Corn (corn (Zea mays); [16]) | Plant response rating, Corn (corn (Zea mays); [17]) | Plant response rating, Barnyardgrass [9, 17] | Surinam Grass plant response rating [10, 15] | Plant response rating, Surinam Grass [10, 17] | Plant response rating, Rice (rice (Oryza sativa)) | Plant response rating, Barnyardgrass [13]
70: Pigweed plant response rating [3, 15] | Plant response rating, Sedge, Umbrella [14]
40: Plant response rating, Velvetleaf [2, 16] | Foxtail, Giant plant response rating [8, 18] | Barnyardgrass plant response rating [9, 18]
30: Corn plant response rating (corn (Zea mays); [18])
100: Lambsquarters plant response rating [6, 18] | Plant response rating, Cocklebur [7, 16] | Morningglory plant response rating [11, 18]
90: Velvetleaf plant response rating [2, 18] | Pigweed plant response rating [3, 18] | Crabgrass plant response rating [5, 18] | Plant response rating, Lambsquarters [6, 16] | Plant response rating, Lambsquarters [6, 17] | Cocklebur plant response rating [7, 15] | Cocklebur plant response rating [7, 18] | Plant response rating, Morningglory [11, 16]
10: Crabgrass plant response rating [5, 15] | Foxtail, Giant plant response rating [8, 15]
60: Plant response rating, Velvetleaf [2, 17] | Plant response rating, Crabgrass [5, 16] | Plant response rating, Barnyardgrass [9, 16]
20: Velvetleaf plant response rating [2, 15] | Plant response rating, Wheat [4, 17] | Plant response rating, Crabgrass [5, 17] | Plant response rating, Foxtail, Giant [8, 17] | Barnyardgrass plant response rating [9, 15] | Plant response rating, Surinam Grass [10, 16] | Surinam Grass plant response rating [10, 18]
50: Plant response rating, Wheat [4, 18] | Plant response rating, Foxtail, Giant [8, 16]
80: Plant response rating, Pigweed [3, 16] | Plant response rating, Pigweed [3, 17] | Lambsquarters plant response rating [6, 15] | Plant response rating, Cocklebur [7, 17] | Morningglory plant response rating [11, 15] | Plant response rating, Morningglory [11, 17] | Plant response rating, Ducksalad [12]

CNN=Cc1nc(C2CC2)nc(N)c1Br [Compound 49]
80: Plant response rating, Velvetleaf [2, 16] | Plant response rating, Velvetleaf [2, 17] | Plant response rating, Crabgrass [5, 16] | Plant response rating, Crabgrass [5, 17] | Lambsquarters plant response rating [6, 15] | Plant response rating, Cocklebur [7, 17] | Plant response rating, Morningglory [11, 17]
30: Oat, Wild plant response rating (wild oat (Avena fatua)) | Wheat plant response rating [4, 15] | Plant response rating, Wheat [4, 17] | Crabgrass plant response rating [5, 15] | Plant response rating, Corn (corn (Zea mays); [16]) | Barnyardgrass plant response rating [9, 15] | Plant response rating, Barnyardgrass [9, 17] | Plant response rating, Rice (rice (Oryza sativa))
70: Plant response rating, Wheat [4, 18] | Plant response rating, Foxtail, Giant [8, 16] | Foxtail, Giant plant response rating [8, 18] | Plant response rating, Barnyardgrass [9, 16] | Plant response rating, Sedge, Umbrella [14]
50: Plant response rating, Blackgrass [1] | Velvetleaf plant response rating [2, 15] | Plant response rating, Barnyardgrass [13]
40: Plant response rating, Wheat [4, 16] | Corn plant response rating (corn (Zea mays); [18]) | Plant response rating, Foxtail, Giant [8, 17] | Plant response rating, Surinam Grass [10, 17]
100: Pigweed plant response rating [3, 18] | Lambsquarters plant response rating [6, 18] | Plant response rating, Cocklebur [7, 16] | Plant response rating, Morningglory [11, 16] | Morningglory plant response rating [11, 18]
90: Velvetleaf plant response rating [2, 18] | Pigweed plant response rating [3, 15] | Plant response rating, Pigweed [3, 16] | Plant response rating, Pigweed [3, 17] | Crabgrass plant response rating [5, 18] | Plant response rating, Lambsquarters [6, 16] | Plant response rating, Lambsquarters [6, 17] | Cocklebur plant response rating [7, 15] | Cocklebur plant response rating [7, 18] | Morningglory plant response rating [11, 15]
60: Plant response rating, Oat, Wild (wild oat (Avena fatua)) | Barnyardgrass plant response rating [9, 18] | Plant response rating, Surinam Grass [10, 16] | Surinam Grass plant response rating [10, 18] | Plant response rating, Ducksalad [12]
10: Plant response rating, Corn (corn (Zea mays); [17]) | Foxtail, Giant plant response rating [8, 15] | Surinam Grass plant response rating [10, 15]
0: Corn plant response rating (corn (Zea mays); [15])
20: Blackgrass plant response rating [1]

CN(C)N=Cc1nc(C2CC2)nc(N)c1Br [Compound 50]
70: Velvetleaf plant response rating [2, 15] | Plant response rating, Pigweed [3, 17] | Plant response rating, Foxtail, Giant [8, 16] | Plant response rating, Surinam Grass [10, 18]
50: Plant response rating, Blackgrass [1] | Plant response rating, Crabgrass [5, 17] | Plant response rating, Barnyardgrass [9, 16] | Plant response rating, Barnyardgrass [9, 18]
90: Plant response rating, Velvetleaf [2, 16] | Plant response rating, Velvetleaf [2, 18] | Plant response rating, Pigweed [3, 16] | Plant response rating, Pigweed [3, 18] | Plant response rating, Lambsquarters [6, 16] | Plant response rating, Lambsquarters [6, 17] | Cocklebur plant response rating [7, 15] | Plant response rating, Cocklebur [7, 16] | Plant response rating, Cocklebur [7, 18] | Morningglory plant response rating [11, 15] | Plant response rating, Morningglory [11, 16] | Plant response rating, Morningglory [11, 18]
10: Plant response rating, Foxtail, Giant [8, 17] | Barnyardgrass plant response rating [9, 15]
60: Plant response rating, Oat, Wild (wild oat (Avena fatua)) | Plant response rating, Wheat [4, 16] | Plant response rating, Surinam Grass [10, 16]
80: Plant response rating, Velvetleaf [2, 17] | Pigweed plant response rating [3, 15] | Plant response rating, Crabgrass [5, 16] | Plant response rating, Crabgrass [5, 18] | Lambsquarters plant response rating [6, 15] | Plant response rating, Cocklebur [7, 17] | Plant response rating, Morningglory [11, 17]
0: Corn plant response rating (corn (Zea mays); [15]) | Plant response rating, Sedge, Umbrella [14]
40: Plant response rating, Wheat [4, 18] | Crabgrass plant response rating [5, 15] | Plant response rating, Corn (corn (Zea mays); [16]) | Plant response rating, Foxtail, Giant [8, 18] | Plant response rating, Ducksalad [12]
100: Plant response rating, Lambsquarters [6, 18]
20: Plant response rating, Wheat [4, 17] | Plant response rating, Corn (corn (Zea mays); [17]) | Plant response rating, Corn (corn (Zea mays); [18]) | Foxtail, Giant plant response rating [8, 15] | Surinam Grass plant response rating [10, 15] | Plant response rating, Surinam Grass [10, 17]
30: Blackgrass plant response rating [1] | Oat, Wild plant response rating (wild oat (Avena fatua)) | Wheat plant response rating [4, 15] | Plant response rating, Barnyardgrass [9, 17] | Plant response rating, Rice (rice (Oryza sativa)) | Plant response rating, Barnyardgrass [13]
